This is an account of results in patent publication US11266655B2, “Methods and compositions for treating urea cycle disorders” (Camp4 Therapeutics Corporation, priority 2019, dated 2022).

Several values for one entry are separate records, joined by “and”; a condition that tells them apart may be missing. Equal values may be shown once. Where a name gives a salt, the structure may show the parent alone. Read-outs that look alike come from different tables or passages of the source.

One experiment concerns ARG1. Kind of experiment: RNA-seq of compound-treated primary human hepatocytes, ARG1 expression. Format: cell-based.
The next experiment concerns SLC25A15. Kind of experiment: RNA-seq of compound-treated primary human hepatocytes, SLC25A15 expression. Format: cell-based.
For experiment [1], the system named is CPS1. In words: HSP90 inhibitor dose titration in hepatocytes of donors A and B, CPS1 mRNA normalized to B2M. Format: cell-based, human. Conditions: 18 hours. The method, then: (§1) Additional small molecules that inhibit HSP90 or HSP70 were tested in primary human hepatocytes as described in Example 2. HSP90 or HSP70 inhibitors were tested in triplicate at 0.3 μM and 3 μM. The results are shown as the fold change (mRNA FC) in the mRNA levels of OTC and CPS1 genes after treatment compared to an untreated control (DMSO) and the standard deviation (SD). In addition, a dose titration experiment was performed with selected HSP90 inhibitors. Hepatocytes were incubated with increasing concentrations of HSP90 inhibitors and the changes in OTC and CPS1 expression quantified as previously described.
(§2) Hepatocytes from two different donors (A and B) were incubated with the various concentrations of HSP90 inhibitors for 18 hours and harvested for mRNA analysis. OTC and CPS1 mRNA were normalized to house keeping gene B2M gene expression.

For another experiment, the system named is SLC25A13. Kind of experiment: RNA-seq of compound-treated primary human hepatocytes, SLC25A13 expression. Format: cell-based. Conditions: primary human hepatocytes, triplicate (Table 23, FIG. 15).
The test system of experiment [2] is OTC. Kind of experiment: HSP90 inhibitor dose titration in hepatocytes of donors A and B, OTC mRNA normalized to B2M. The experiment is classed as cell-based, human. Conditions: 18 hours. The method, then:
as §1, §2

A further experiment deals with ASS1. Kind of experiment: RNA-seq of compound-treated primary human hepatocytes, ASS1 expression. The experiment is classed as cell-based.
The subject of experiment [3] is CPS1. In words: HSP90 or HSP70 inhibitors in primary human hepatocytes, CPS1 mRNA. Conditions: hepatocytes from Donor B, normalized to B2M. Format: cell-based. The method, then: as §1
(§3) HSP90 and HSP70 inhibitors were compared to confirm the role of HSP90 in modulating OTC and CPS1 expression. Hepatocytes from Donor B were incubated with various HSP90 inhibitors or an HSP70 inhibitor, Pifithrin-μ, and then harvested for mRNA quantification. OTC and CPS1 mRNA levels were normalized to B2M.

For experiment [4], the system named is OTC. In words: HSP90 or HSP70 inhibitors in primary human hepatocytes, OTC mRNA. Format: cell-based. Conditions: hepatocytes from Donor B, normalized to B2M. The method, then: as §1, §3
A further experiment deals with urea cycle genes. Kind of experiment: RNA-seq of primary human hepatocytes, compounds that modulate multiple urea cycle-related genes. The experiment is classed as cell-based. Conditions: primary human hepatocytes, RNA-seq.
For a further experiment, the system named is NAGS. The experiment is classed as cell-based, human. Conditions: primary human hepatocytes.
Experiment [5] deals with OTC. In words: RNA-seq of compound-treated primary human hepatocytes, OTC expression. Format: cell-based. Conditions: primary human hepatocytes, RNA-seq.
Experiment [6] concerns OTC. Kind of experiment: JAK inhibitors at 0.3 and 3 μM in primary human hepatocytes, OTC mRNA fold change. Conditions: fold change vs DMSO. The experiment is classed as cell-based. The method, then: (§4) Additional small molecules that inhibit JAK1, JAK2, JAK3, or a combination of the JAK proteins were tested in primary human hepatocytes as described in Example 2. JAK inhibitors were tested in triplicate at 0.3 μM and 3 μM. The results are shown as the fold change (mRNA FC) in the mRNA levels of OTC and CPS1 genes after treatment compared to an untreated control (DMSO) and the standard deviation (SD).

Experiment [7] relates to CPS1. In words: JAK inhibitors at 0.3 and 3 μM in primary human hepatocytes, CPS1 mRNA fold change. Conditions: fold change vs DMSO. Format: cell-based. The method, then: as §4
Experiment [8] has as its system OTC. In words: JAK1 inhibitor dose titration in hepatocytes of donors A and B, OTC mRNA normalized to B2M. Conditions: normalized to B2M. The experiment is classed as cell-based, human. The method, then: (§5) Next, two JAK1 inhibitors were tested at increasing concentrations in a dose titration assy. Hepatocytes from two different donors (A and B) were incubated with the various concentrations of upadacitinib or oclacitinib maleate and harvested for mRNA analysis. OTC and CPS1 mRNA were normalized to house keeping gene B2M gene expression.

For experiment [9], the system named is CPS1. Kind of experiment: JAK1 inhibitor dose titration in hepatocytes of donors A and B, CPS1 mRNA normalized to B2M. Format: cell-based, human. Conditions: normalized to B2M. The method, then:
as §5

Turning to `C=CCNc1c(O)cc2c(O)c1C[C@@H](C)C[C@H](OC)[C@H](O)[C@@H](C)/C=C(\C)[C@H](OC(N)=O)[C@@H](OC)/C=C\C=C(/C)C(=O)N2` [Retaspimycin Hydrochloride], the “Relative ARGI level vs Untreated (±Standard Deviation)” value with ARG1 was 1.31 ± 0.12. Moreover, the “Relative SLC25A15 level vs Untreated (±Standard Deviation)” value in the experiment on SLC25A15 (Hydrochloride) was 1.35 ± 0.27 and 1.31 ± 0.08 and 1.54 ± 0.17 and 1.45 ± 0.01 and 1.60 ± 0.25 and 1.67 ± 0.17 and 1.93 ± 0.13 and 1.77 ± 0.11. Moreover, the “CPS1 mRNA FC, Donor A” value is 1.54 in the experiment with CPS1 [1] (0.01 uM), 3.17 in the experiment on CPS1 [1] (0.03 uM) and 3.76 in the experiment on CPS1 [1] (0.1 uM). For the same molecule, the “CPS1 mRNA FC, Donor B” value worked out at 1.29 with CPS1 [1] (0.01 uM), 1.67 in the experiment with CPS1 [1] (0.03 uM) and 2.57 in the experiment with CPS1 [1] (0.1 uM). For the same molecule, the “Relative SLC25A13 level vs Untreated (±Standard Deviation)” value turned out to be 1.35 ± 0.27 in the experiment with SLC25A13 (0.3 μM), 1.31 ± 0.08 in the experiment on SLC25A13 (1 μM), 1.54 ± 0.17 with SLC25A13 (3 μM) and 1.45 ± 0.01 with SLC25A13 (10 μM). Further, the “OTC mRNA FC, Donor A” value in the experiment on OTC [2] (0.01 uM) is 1.40; with OTC [2] (0.03 uM), 5.91; with OTC [2] (0.1 uM), 9.07. The figures for the “OTC mRNA FC, Donor B” value in the experiment with OTC [2] (0.01 uM), with OTC [2] (0.03 uM) and in the experiment with OTC [2] (0.1 uM) were 1.31, 1.78 and 5.18, respectively. Besides, the “Relative ASS1 level vs Untreated (±Standard Deviation)” value with ASS1 was 1.38 ± 0.13. In addition, the figures for the “CPS1 Expression mRNA FC” value in the experiment with CPS1 [3] (0.3 uM) and in the experiment with CPS1 [3] (3 uM) were 1.23 and 2.24, respectively. In addition, the “OTC Expression mRNA FC” value with OTC [4] (0.3 uM) was found to be 2.98; with OTC [4] (3 uM), 2.53.

Consider `NS(=O)(=O)C#Cc1ccccc1` [Pifithrin-μ], for which, in the experiment on ARG1 (primary human hepatocytes, RNA-seq (Table 7)), the “Fold change (Log 2) vs untreated, ARG1 expression” value is recorded as 1.87 Log 2. In addition, the “number of urea cycle genes whose expression was significantly up-regulated” value in the experiment with urea cycle genes was “three”. Moreover, in the experiment with urea cycle genes (urea cycle-related genes significantly increased (Table 10)), the “Up-regulated Genes” value is “OTC, NAGS, ARG1”. The “CPS1 Expression mRNA FC” value in the experiment with CPS1 [3] (0.3 uM) stood at 0.98; with CPS1 [3] (3 uM), 1.05. Further, the “Fold change (Log 2) vs untreated, NAGS expression” value with NAGS (RNA-seq (Table 6)) is 1.18 Log 2. Also, the “OTC expression, Fold change (Log 2) vs untreated” value with OTC [5] is reported as 0.79 Log 2. In addition, the “OTC Expression mRNA FC” value with OTC [4] (0.3 uM) amounted to 1.20; with OTC [4] (3 uM), 1.29.

For the molecule `CO[C@H]1/C=C\C=C(/C)C(=O)NC2=CC(=O)C(NCCN(C)C)=C(C[C@@H](C)C[C@H](OC)[C@H](O)[C@@H](C)/C=C(\C)[C@@H]1OC(N)=O)C2=O` [Alvespimycin hydrochloride], the “CPS1 Expression mRNA FC” value amounted to 1.41 in the experiment on CPS1 [3] (0.3 uM) and 1.54 in the experiment with CPS1 [3] (3 uM). The “OTC Expression mRNA FC” value was 1.94 in the experiment with OTC [4] (0.3 uM) and 1.03 in the experiment on OTC [4] (3 uM).

Regarding `CCNC(=O)c1noc(-c2cc(C(C)C)c(O)cc2O)c1-c1ccc(CN2CCOCC2)cc1` [Luminespib], the “Relative ARGI level vs Untreated (±Standard Deviation)” value in the experiment with ARG1 (10 μM, primary human hepatocytes, triplicate (Table 17, FIG. 9)) came to 1.34 ± 0.07. Moreover, the “Relative SLC25A15 level vs Untreated (±Standard Deviation)” value with SLC25A15 (3 μM, primary human hepatocytes, triplicate (Table 24, FIG. 16A-B)) is 1.32 ± 0.24; in the experiment on SLC25A15 (10 μM, primary human hepatocytes, triplicate (Table 24, FIG. 16A-B)), 1.55 ± 0.02 and 1.82 ± 0.08. The “Relative SLC25A13 level vs Untreated (±Standard Deviation)” value in the experiment with SLC25A13 (10 μM) was found to be 1.55 ± 0.02. Also, the “CPS1 Expression mRNA FC” value in the experiment on CPS1 [3] (0.3 uM) turned out to be 0.86; with CPS1 [3] (3 uM), 1.39. Also, in the experiment on NAGS (1 μM, triplicate (Table 21, FIG. 13)), the “Relative NAGS level vs Untreated (±Standard Deviation)” value was 1.32 ± 0.30. Further, the “OTC Expression mRNA FC” value is reported as 0.81 with OTC [4] (0.3 uM) and 3.07 in the experiment with OTC [4] (3 uM).

`CC[C@@H]1CN(C(=O)NCC(F)(F)F)C[C@@H]1c1cnc2cnc3[nH]ccc3n12` [upadacitinib]: the “OTC mRNA FC” value amounted to 2.91 with OTC [6] (0.3 uM) and 2.75 with OTC [6] (3 uM). For the same molecule, the entries for the “CPS1 mRNA FC” value in the experiment on CPS1 [7] (0.3 uM) and with CPS1 [7] (3 uM) were 2.02 and 1.39, respectively. Moreover, the “OTC mRNA FC, Donor A” value with OTC [8] (0.1 uM) is 1.36; in the experiment with OTC [8] (0.3 uM) it was 1.99; in the experiment with OTC [8] (1 uM) it was 3.17; in the experiment on OTC [8] (3 uM), 4.81; in the experiment on OTC [8] (10 uM), 6.77. The “OTC mRNA FC, Donor B” value with OTC [8] (0.1 uM) came out at 1.56; with OTC [8] (0.3 uM) it was 2.06; in the experiment on OTC [8] (1 uM), 3.54; in the experiment on OTC [8] (3 uM), 4.66; in the experiment on OTC [8] (10 uM) it was 9.39. The “CPS1 mRNA FC, Donor A” value with CPS1 [9] (0.1 uM) was found to be 1.26; in the experiment on CPS1 [9] (0.3 uM), 1.58; with CPS1 [9] (1 uM) it was 2.70; with CPS1 [9] (3 uM), 3.15; in the experiment on CPS1 [9] (10 uM), 4.25. For the same molecule, the “CPS1 mRNA FC, Donor B” value with CPS1 [9] (0.1 uM) was determined as 3.74; in the experiment on CPS1 [9] (0.3 uM), 2.54; in the experiment with CPS1 [9] (1 uM), 2.38; in the experiment with CPS1 [9] (3 uM), 1.43; with CPS1 [9] (10 uM), 1.21.
